Type in all cases: functional
Assay [1] concerns Rattus norvegicus. Nature of the assay: Antioxidant activity in CCL4-intoxicated Wistar albino rat assessed as liver cytosolic superoxide dismutase activity per mg protein at 100 mg/kg, ip administered for 7 consecutive days after DL-alpha-tocopherol acetate treatment followed by CCL4 dosing measured after 24 hrs by xanthine based assay (reference value: 5.27 +/- 0.22 U).
A short description of assay [2]: Antifungal activity against Saccharomyces cerevisiae SH20 after 72 hrs by agar dilution method. (In general: In agar dilution, organisms are placed on agar that contains the substance at set levels.)
For assay [3], the system named is Rattus norvegicus. Nature of the assay: Antioxidant activity in CCL4-intoxicated Wistar albino rat assessed as liver cytosolic catalase activity per mg protein at 100 mg/kg, ip administered for 7 consecutive days after DL-alpha-tocopherol acetate treatment followed by CCL4 dosing measured after 24 hrs by H2O2 based assay (reference value: 220.15 +/- 11.43 U).
Assay [4] relates to Staphylococcus aureus. Nature of the assay: Antibacterial activity against methicillin-resistant Staphylococcus aureus 198-3 after 18 to 20 hrs by two-fold microbroth dilution method. A general note: Broth dilution looks for growth in wells or tubes with falling amounts of substance.
For a further assay, the system named is Candida albicans. Nature of the assay: Antifungal activity against Candida albicans ATCC 7754 after 72 hrs by agar dilution method. The conditions noted are these: ATCC 7754, 72 h.
For the next assay, the system named is Escherichia coli. Nature of the assay: Antibacterial activity against Escherichia coli ATCC 25922 after 18 to 20 hrs by two-fold microbroth dilution method.
Another assay relates to Aspergillus niger. Nature of the assay: Antifungal activity against Aspergillus niger 439 after 72 hrs by agar dilution method. The note with it: Aspergillus niger, 439, 72 h.
The next assay relates to Bacillus subtilis. Nature of the assay: Antibacterial activity against Bacillus subtilis ATCC 11774 after 18 to 20 hrs by two-fold microbroth dilution method.
For assay [5], the system named is Staphylococcus aureus. In words: Antibacterial activity against Staphylococcus aureus ATCC 11632 after 18 to 20 hrs by two-fold microbroth dilution method.
A further assay has as its system Pseudomonas aeruginosa. In words: Antibacterial activity against Pseudomonas aeruginosa […] after 18 to 20 hrs by two-fold microbroth dilution method.
For another assay, the system named is Klebsiella pneumoniae. Nature of the assay: Antibacterial activity against Klebsiella pneumoniae ATCC 4352 after 18 to 20 hrs by two-fold microbroth dilution method.
Assay [6] deals with Staphylococcus epidermidis. Nature of the assay: Antibacterial activity against Staphylococcus epidermidis ATCC 12228 after 18 to 20 hrs by two-fold microbroth dilution method.
Assay [7] concerns Rattus norvegicus. Nature of the assay: Antioxidant activity in CCL4-intoxicated Wistar albino rat assessed as liver cytosolic glutathione peroxidase activity per mg protein at 100 mg/kg, ip administered for 7 consecutive days after DL-alpha-tocopherol acetate treatment followed by CCL4 dosing measured after 24 hrs by H2O2 based spectrophotometric analysis (reference value: 0.28 +/- 0.01 U).

Assay [8] has as its system Staphylococcus aureus. Nature of the assay: Antibacterial activity against methicillin-resistant Staphylococcus aureus 198-1 after 18 to 20 hrs by two-fold microbroth dilution method.
The next assay has as its system Klebsiella aerogenes. Nature of the assay: Antibacterial activity against Enterobacter aerogenes ATCC 13048 after 18 to 20 hrs by two-fold microbroth dilution method.
Assay [9] in a line: Antifungal activity against Fusarium oxysporum M42 after 72 hrs by agar dilution method.
Assay [10] concerns Staphylococcus aureus. In words: Antibacterial activity against methicillin-resistant Staphylococcus aureus 198-2 after 18 to 20 hrs by two-fold microbroth dilution method.

Values after ≈ are worked out from the molar mass of the structure shown.

Consider `CC(=O)OC[C@H]1O[C@@H](NC(=S)N/N=C2/C(=O)N(CCc3ccccc3)c3ccccc32)[C@H](OC(C)=O)[C@@H](OC(C)=O)[C@@H]1OC(C)=O`, for which the Activity with Rattus norvegicus [1] worked out at 8.45 U; in the assay with Rattus norvegicus [3], 260.61 U; in the assay on Rattus norvegicus [7], 1.73 U. In addition, the MIC (usually the lowest concentration found to suppress growth) worked out at 400 µM (≈ 262 µg/mL) in [2]; 200 µM (≈ 131 µg/mL) in the assay on Staphylococcus aureus [4]; 400 µM (≈ 262 µg/mL) with Candida albicans; 100 µM (≈ 65.5 µg/mL) against Escherichia coli; 200 µM (≈ 131 µg/mL) against Aspergillus niger; 200 µM (≈ 131 µg/mL) in the assay on Bacillus subtilis. The MIC was determined as 200 µM (≈ 131 µg/mL) against Staphylococcus aureus [5]; 100 µM (≈ 65.5 µg/mL) in the assay on Pseudomonas aeruginosa; 100 µM (≈ 65.5 µg/mL) in the assay with Klebsiella pneumoniae; 200 µM (≈ 131 µg/mL) in assay [6]; 200 µM (≈ 131 µg/mL) against Staphylococcus aureus [8]; 100 µM (≈ 65.5 µg/mL) with Klebsiella aerogenes. Also, the MIC (in assay [9]; against Staphylococcus aureus [10]) was 200 µM (≈ 131 µg/mL) each time.
Turning to `CC(=O)OC[C@H]1O[C@@H](NC(=S)N/N=C2/C(=O)Nc3ccc(Br)cc32)[C@H](OC(C)=O)[C@@H](OC(C)=O)[C@@H]1OC(C)=O`, the Activity in the assay on Rattus norvegicus [1] is 10.47 U; in the assay with Rattus norvegicus [3], 394.43 U; in the assay with Rattus norvegicus [7], 0.32 U. Moreover, the minimal inhibitory concentration (MIC) in assay [2] is 12.5 µM (≈ 7.87 µg/mL); against Staphylococcus aureus [4], 3.12 µM (≈ 1.96 µg/mL); against Candida albicans, 12.5 µM (≈ 7.87 µg/mL); against Escherichia coli, 50 µM (≈ 31.5 µg/mL); against Aspergillus niger, 6.25 µM (≈ 3.93 µg/mL); with Bacillus subtilis it was 6.25 µM (≈ 3.93 µg/mL). The MIC in the assay on Staphylococcus aureus [5] is 6.25 µM (≈ 3.93 µg/mL); against Pseudomonas aeruginosa, 50 µM (≈ 31.5 µg/mL); in the assay on Klebsiella pneumoniae it was 50 µM (≈ 31.5 µg/mL); in assay [6], 6.25 µM (≈ 3.93 µg/mL); against Staphylococcus aureus [8] it was 1.56 µM (≈ 0.982 µg/mL); in the assay with Klebsiella aerogenes, 50 µM (≈ 31.5 µg/mL). In addition, the MIC in assay [9] is 12.5 µM (≈ 7.87 µg/mL); against Staphylococcus aureus [10], 1.56 µM (≈ 0.982 µg/mL).
On to `CC(=O)OC[C@H]1O[C@@H](NC(=S)N/N=C2/C(=O)Nc3ccccc32)[C@H](OC(C)=O)[C@@H](OC(C)=O)[C@@H]1OC(C)=O`, for which the Activity is given as 5.81 U with Rattus norvegicus [1], 295.32 U in the assay on Rattus norvegicus [3] and 1.77 U with Rattus norvegicus [7]. The MIC in [2] was found to be 100 µM (≈ 55.1 µg/mL); with Staphylococcus aureus [4] it was 200 µM (≈ 110 µg/mL); with Candida albicans, 200 µM (≈ 110 µg/mL); against Escherichia coli, 50 µM (≈ 27.5 µg/mL); in the assay with Aspergillus niger, 100 µM (≈ 55.1 µg/mL); in the assay with Bacillus subtilis it was 100 µM (≈ 55.1 µg/mL). In addition, the minimum inhibitory concentration (MIC) in the assay with Staphylococcus aureus [5] was determined as 200 µM (≈ 110 µg/mL); against Pseudomonas aeruginosa, 50 µM (≈ 27.5 µg/mL); against Klebsiella pneumoniae, 50 µM (≈ 27.5 µg/mL); in [6] it was 100 µM (≈ 55.1 µg/mL); in the assay on Staphylococcus aureus [8], 200 µM (≈ 110 µg/mL); against Klebsiella aerogenes, 50 µM (≈ 27.5 µg/mL). For the same compound, the MIC in [9] turned out to be 100 µM (≈ 55.1 µg/mL); in the assay with Staphylococcus aureus [10] it was 200 µM (≈ 110 µg/mL).
For the compound `CCCN1C(=O)/C(=N/NC(=S)N[C@@H]2O[C@H](COC(C)=O)[C@@H](OC(C)=O)[C@H](OC(C)=O)[C@H]2OC(C)=O)c2ccccc21`, the figures for the Activity with Rattus norvegicus [1], in the assay on Rattus norvegicus [3] and in the assay with Rattus norvegicus [7] were 9.77 U, 367.63 U and 0.84 U, respectively. Further, the minimal inhibitory concentration (MIC) in [2] came out at 400 µM (≈ 237 µg/mL); against Staphylococcus aureus [4], 100 µM (≈ 59.3 µg/mL); in the assay on Candida albicans, 400 µM (≈ 237 µg/mL); against Escherichia coli, 12.5 µM (≈ 7.41 µg/mL); with Aspergillus niger, 50 µM (≈ 29.6 µg/mL); in the assay with Bacillus subtilis it was 100 µM (≈ 59.3 µg/mL). Further, the minimum inhibitory concentration (MIC) in the assay with Staphylococcus aureus [5] came out at 100 µM (≈ 59.3 µg/mL); in the assay with Pseudomonas aeruginosa, 12.5 µM (≈ 7.41 µg/mL); against Klebsiella pneumoniae, 12.5 µM (≈ 7.41 µg/mL); in assay [6], 100 µM (≈ 59.3 µg/mL); against Staphylococcus aureus [8], 100 µM (≈ 59.3 µg/mL); against Klebsiella aerogenes, 12.5 µM (≈ 7.41 µg/mL). Besides, the MIC (in [9]; against Staphylococcus aureus [10]) was 100 µM (≈ 59.3 µg/mL) each time.
Turning to `CC(=O)OC[C@H]1O[C@@H](NC(=S)N/N=C2/C(=O)Nc3ccc(Cl)cc32)[C@H](OC(C)=O)[C@@H](OC(C)=O)[C@@H]1OC(C)=O`, the Activity was 10.2 U in the assay with Rattus norvegicus [1], 390.63 U in the assay with Rattus norvegicus [3] and 0.31 U in the assay with Rattus norvegicus [7]. Moreover, the minimum inhibitory concentration (MIC) was determined as 12.5 µM (≈ 7.31 µg/mL) in assay [2]; 0.78 µM (≈ 0.456 µg/mL) against Staphylococcus aureus [4]; 12.5 µM (≈ 7.31 µg/mL) against Candida albicans; 50 µM (≈ 29.2 µg/mL) with Escherichia coli; 12.5 µM (≈ 7.31 µg/mL) against Aspergillus niger; 6.25 µM (≈ 3.66 µg/mL) against Bacillus subtilis. The minimal inhibitory concentration (MIC) in the assay on Staphylococcus aureus [5] was 6.25 µM (≈ 3.66 µg/mL); with Pseudomonas aeruginosa, 50 µM (≈ 29.2 µg/mL); against Klebsiella pneumoniae, 50 µM (≈ 29.2 µg/mL); in assay [6], 6.25 µM (≈ 3.66 µg/mL); against Staphylococcus aureus [8] it was 0.78 µM (≈ 0.456 µg/mL); against Klebsiella aerogenes it was 50 µM (≈ 29.2 µg/mL). Also, the MIC amounted to 12.5 µM (≈ 7.31 µg/mL) in assay [9] and 0.78 µM (≈ 0.456 µg/mL) against Staphylococcus aureus [10].

These data come from ChEMBL document CHEMBL3872214, “Synthesis and evaluation of in vivo antioxidant, in vitro antibacterial, MRSA and antifungal activity of novel substituted isatin N-(2,3,4,6-tetra-O-acetyl-β-d-glucopyranosyl)thiosemicarbazones” (Eur J Med Chem, 2016).
